Measurements reported in patent publication US10294202B2, “Pyrrolidinones as herbicides” (FMC Corporation, priority 2013, dated 2019).

What was measured:
morningglory = experiment: Test A pre-/postemergence herbicide test; format: in vivo, Ipomoea spp.; settings: for Morningglory plant response rating: Preemergence, visual rating on 0 to 100 scale (0 no effect, 100 complete control)
How it was run: (§1)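 Planted in loam–sand blend; treated the same day preemergence by directed soil spray, while separately grown plants at one- to two-leaf stage got postemergence spray. Compared visually with untreated controls after approximately 10 days; 100 means complete control.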

pigweed [1] = experiment: Test A pre-/postemergence herbicide test; format: in vivo, Amaranthus retroflexus; settings: for Pigweed plant response rating: Preemergence, visual rating on 0 to 100 scale (0 no effect, 100 complete control)
How it was run: as §1

barnyardgrass [2] = experiment: Test B flooded paddy test; format: in vivo, Echinochloa crus-galli; settings: Flood, scale of 0 to 100 where 0 is no effect and 100 is complete control
How it was run: (§2)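 Scored visually 0–100 (0 no effect, 100 complete control) versus controls after 13 to 15 greenhouse days. Treatment: compound added to paddy water kept 3 cm above soil, on 2-leaf-stage plants.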

pigweed [3] = experiment: Test C pre-/postemergence herbicide test; format: in vivo, Amaranthus retroflexus
Source text: (§3) Seeds of plant species selected from blackgrass (Alopecurus myosuroides), ryegrass, Italian (Italian ryegrass, Lolium multiflorum), wheat (winter wheat, Triticum aestivum), galium (catchweed bedstraw, Galium aparine), corn (Zea mays), crabgrass, large (large crabgrass, Digitaria sanguinalis), foxtail, giant (giant foxtail, Setaria faberii), johnsongrass (Sorghum halepense), lambsquarters (Chenopodium album), morningglory (Ipomoea coccinea), nutsedge, yellow (yellow nutsedge, Cyperus esculentus), pigweed (Amaranthus retroflexus), ragweed (common ragweed, Ambrosia elatior), soybean (Glycine max), barnyardgrass (Echinochloa crus-galli), oilseed rape (Brassica napus), waterhemp (common waterhemp, Amaranthus rudis), kochia (Kochia scoparia), oat, wild (wild oat, Avena fatua), surinam grass (Brachiaria decumbens), foxtail, green (green foxtail, Setaria viridis), goosegrass (Eleusine indica), bromegrass, downy (downy bromegrass, Bromus tectorum), nightshade (eastern black nightshade, Solanum ptycanthum), cocklebur (common cocklebur, Xanthium strumarium), cupgrass, woolly (woolly cupgrass, Eriochloa villosa), bermudagrass (Cynodon dactylon), sunflower, (common oilseed sunflower, Helianthus annuus), Russian thistle (Salsola kali) and velvetleaf (Abutilon theophrasti) were planted into a blend of loam soil and sand and treated preemergence with test chemicals formulated in a non-phytotoxic solvent mixture which included a surfactant. At the same time, plants selected from these crop and weed species and also barley (winter barley, Hordeum vulgare), […]), chickweed (common chickweed, Stellaria media), deadnettle (henbit deadnettle, Lamium amplexicaule), and canarygrass (littleseed canarygrass, Phalaris minor) were planted in pots containing Redi-Earth® planting medium (Scotts Company, 14111 Scottslawn Road, Marysville, Ohio 43041) comprising spaghnum peat moss, vermiculite, wetting agent and starter nutrients and treated with postemergence applications of test chemicals formulated in the same manner. Plants ranged in height from 2 to 18 cm (1- to 4-leaf stage) for postemergence treatments. Treated plants and controls were maintained in a greenhouse for 13 to 15 days, after which time all species were compared to controls and visually evaluated. Plant response ratings, summarized in Table C, are based on a scale of 0 to 100 where 0 is no effect and 100 is complete control. A dash (-) response means no test result.

ragweed = experiment: Test A pre-/postemergence herbicide test; format: in vivo, Ambrosia elatior
How it was run: as §1

ryegrass, Italian = experiment: Test A pre-/postemergence herbicide test; format: in vivo, Lolium multiflorum
How it was run: as §1

barnyardgrass [4] = experiment: Test C pre-/postemergence herbicide test; format: in vivo, Echinochloa crus-galli; settings: for Barnyardgrass plant response rating: scale 0 to 100, 0 is no effect and 100 is complete control
Source text: as §3

ducksalad = experiment: Test B flooded paddy test; format: in vivo, Heteranthera limosa; settings: Flood, scale of 0 to 100 where 0 is no effect and 100 is complete control
How it was run: as §2

[5] = Postemergence, 500 g ai/ha, 0 to 100 scale (0 no effect, 100 complete control)
[6] = preemergence, 500 g ai/ha, 0 to 100 scale
[7] = Postemergence, 31 g ai/ha, scale 0 (no effect) to 100 (complete control)
[8] = Postemergence, 62 g ai/ha, scale 0 to 100 (0 no effect, 100 complete control)
[9] = Postemergence, 125 g ai/ha, scale 0 to 100 (0 no effect, 100 complete control)
[10] = Postemergence, 250 g ai/ha, scale 0 to 100 (0 no effect, 100 complete control)
[11] = Preemergence, 31 g ai/ha, scale 0 to 100, 0 is no effect and 100 is complete control
[12] = Preemergence, 62 g ai/ha, scale 0 to 100
[13] = Preemergence, 125 g ai/ha, scale 0 to 100 (0 no effect, 100 complete control)
[14] = Postemergence, 125 g ai/ha, 0 to 100 scale, 0 no effect, 100 complete control
[15] = Preemergence, 125 g ai/ha, visual rating on 0 to 100 scale (0 no effect, 100 complete control)
[16] = Postemergence, 31 g ai/ha, scale 0 to 100 (0 no effect, 100 complete control)
[17] = Postemergence, 62 g ai/ha, scale 0 (no effect) to 100 (complete control)
[18] = 125 g ai/ha, visual rating, 0 to 100 scale, 0 no effect, 100 complete control, approximately 10 days, preemergence
[19] = Postemergence, 125 g ai/ha, 0 to 100 scale, 0 is no effect, 100 is complete control
[20] = preemergence, 500 g ai/ha, 0 to 100 scale, 0 is no effect and 100 is complete control

O=C1NCC(c2ccc(F)c(F)c2)C1C(=O)Nc1ccccc1C(F)(F)F (racemic) [Compound 6]
Plant response rating, Morningglory (morningglory; [5]): 0
Morningglory plant response rating (morningglory; 125 g ai/ha): 0
Plant response rating, Morningglory (morningglory; [6]): 0
Plant response rating, Pigweed (pigweed [1]; [5]): 10
Pigweed plant response rating (pigweed [1]; 125 g ai/ha): 0
Plant response rating, Pigweed (pigweed [1]; [6]): 0

Cc1ccccc1NC(=O)C1C(=O)NCC1c1cccc(C(F)(F)F)c1 (racemic) [Compound 109]
Plant response rating, Barnyardgrass (barnyardgrass [2]; 1000 g ai/ha): 0
Plant response rating, Pigweed (pigweed [3]; [7]): 5
Plant response rating, Pigweed (pigweed [3]; [8]): 5
Plant response rating, Pigweed (pigweed [3]; [9]): 5
Plant response rating, Pigweed (pigweed [3]; [10]): 10
Pigweed plant response rating (pigweed [3]; [11]): 30
Plant response rating, Pigweed (pigweed [3]; [12]): 0
Plant response rating, Pigweed (pigweed [3]; [13]): 0
Plant response rating (scale of 0 to 100), Pigweed (pigweed [3]; Preemergence, 250 g ai/ha): 20
Plant response rating, Ragweed (ragweed; [14]): 0
Plant response rating, Ragweed (ragweed; [5]): 0
Ragweed plant response rating (ragweed; [15]): 0
Plant response rating, Ragweed (ragweed; [6]): 0
Plant response rating, Ryegrass, Italian (ryegrass, Italian; [14]): 20
Plant response rating, Ryegrass, Italian (ryegrass, Italian; [5]): 30
Ryegrass, Italian plant response rating (ryegrass, Italian; [15]): 0
Plant response rating, Ryegrass, Italian (ryegrass, Italian; [6]): 50
Plant response rating, Barnyardgrass (barnyardgrass [4]; [7]): 0
Plant response rating, Barnyardgrass (barnyardgrass [4]; [8]): 0
Plant response rating, Barnyardgrass (barnyardgrass [4]; [9]): 0
Plant response rating, Barnyardgrass (barnyardgrass [4]; [10]): 45
Barnyardgrass plant response rating (barnyardgrass [4]; Preemergence, 31 g ai/ha): 70
Plant response rating, Barnyardgrass (barnyardgrass [4]; [12]): 85
Plant response rating, Barnyardgrass (barnyardgrass [4]; [13]): 95
Plant response rating (scale of 0 to 100; 0 is no effect, 100 is complete control), Barnyardgrass (barnyardgrass [4]; Preemergence, 250 g ai/ha): 98
Plant response rating, Pigweed (pigweed [1]; [14]): 0
Plant response rating, Pigweed (pigweed [1]; [5]): 0
Pigweed plant response rating (pigweed [1]; 125 g ai/ha): 0
Plant response rating, Pigweed (pigweed [1]; [6]): 0
Plant response rating, Ducksalad (ducksalad; 1000 g ai/ha): 95

O=C1NCC(c2ccc(C(F)(F)F)cc2)C1C(=O)Nc1cccc(F)c1F (racemic) [Compound 202]
Plant response rating, Barnyardgrass (barnyardgrass [2]; 500 g ai/ha): 65
Plant response rating, Pigweed (pigweed [3]; [16]): 80
Plant response rating, Pigweed (pigweed [3]; [17]): 80
Plant response rating, Pigweed (pigweed [3]; [9]): 85
Plant response rating, Pigweed (pigweed [3]; [10]): 85
Pigweed plant response rating (pigweed [3]; [11]): 85
Pigweed plant response rating (pigweed [3]; Preemergence, 62 g ai/ha, scale 0 to 100 (0 no effect, 100 complete control)): 85
Plant response rating, Pigweed (pigweed [3]; [13]): 90
Plant response rating (scale of 0 to 100), Pigweed (pigweed [3]; Preemergence, 250 g ai/ha): 100
Plant response rating, Ragweed (ragweed; [18]): 50
Plant response rating, Ragweed (ragweed; [19]): 30
Ragweed plant response rating (0 to 100 scale, 0 is no effect, 100 is complete control) (ragweed; Postemergence, 500 g ai/ha): 50
Plant response rating, Ragweed (ragweed; [20]): 90
Plant response rating, Ryegrass, Italian (ryegrass, Italian; [18]): 60
Plant response rating, Ryegrass, Italian (ryegrass, Italian; [19]): 30
Ryegrass, Italian plant response rating (0 to 100 scale, 0 is no effect, 100 is complete control) (ryegrass, Italian; Postemergence, 500 g ai/ha): 40
Plant response rating, Ryegrass, Italian (ryegrass, Italian; [20]): 60
Plant response rating, Barnyardgrass (barnyardgrass [4]; [16]): 25
Plant response rating, Barnyardgrass (barnyardgrass [4]; [17]): 65
Plant response rating, Barnyardgrass (barnyardgrass [4]; [9]): 65
Plant response rating, Barnyardgrass (barnyardgrass [4]; [10]): 85
Barnyardgrass plant response rating (barnyardgrass [4]; Preemergence, 31 g ai/ha): 90
Plant response rating, Barnyardgrass (barnyardgrass [4]; [12]): 90
Plant response rating, Barnyardgrass (barnyardgrass [4]; [13]): 95
Plant response rating (scale of 0 to 100; 0 is no effect, 100 is complete control), Barnyardgrass (barnyardgrass [4]; Preemergence, 250 g ai/ha): 95
Plant response rating, Pigweed (pigweed [1]; [18]): 60
Plant response rating, Pigweed (pigweed [1]; [19]): 70
Pigweed plant response rating (0 to 100 scale, 0 is no effect, 100 is complete control) (pigweed [1]; Postemergence, 500 g ai/ha): 80
Plant response rating, Pigweed (pigweed [1]; [20]): 70
Plant response rating, Ducksalad (ducksalad; 500 g ai/ha): 100

O=C1NCC(c2cc(F)c(F)c(F)c2)C1C(=O)Nc1cccc(F)c1F (centres unmarked) [Compound 48]
Plant response rating, Barnyardgrass (barnyardgrass [2]; 250 g ai/ha): 40
Plant response rating, Pigweed (pigweed [3]; Postemergence, 16 g ai/ha, scale 0 to 100 (0 no effect, 100 complete control)): 10
Plant response rating, Pigweed (pigweed [3]; [7]): 25
Plant response rating, Pigweed (pigweed [3]; [8]): 30
Plant response rating, Pigweed (pigweed [3]; [9]): 40
Plant response rating, Pigweed (pigweed [3]; [12]): 0
Plant response rating, Pigweed (pigweed [3]; [13]): 0
Plant response rating, Pigweed (pigweed [3]; Preemergence, 16 g ai/ha, scale 0 to 100): 0
Plant response rating, Morningglory (morningglory; [14]): 0
Plant response rating, Morningglory (morningglory; [5]): 20
Morningglory plant response rating (morningglory; 125 g ai/ha): 0
Plant response rating, Morningglory (morningglory; [6]): 0
Plant response rating, Pigweed (pigweed [1]; [14]): 0
Plant response rating, Pigweed (pigweed [1]; [5]): 0
Pigweed plant response rating (pigweed [1]; 125 g ai/ha): 0
Plant response rating, Pigweed (pigweed [1]; [6]): 0
Plant response rating, Ducksalad (ducksalad; 250 g ai/ha): 100

O=C1NCC(c2cc(F)c(F)cc2F)C1C(=O)Nc1cccc(F)c1F (centres unmarked) [Compound 50]
Plant response rating, Barnyardgrass (barnyardgrass [2]; 250 g ai/ha): 0
Plant response rating, Pigweed (pigweed [3]; [7]): 10
Plant response rating, Pigweed (pigweed [3]; [8]): 10
Plant response rating, Pigweed (pigweed [3]; [9]): 20
Plant response rating, Pigweed (pigweed [3]; [10]): 20
Plant response rating, Morningglory (morningglory; [14]): 0
Plant response rating, Morningglory (morningglory; [5]): 0
Morningglory plant response rating (morningglory; 125 g ai/ha): 0
Plant response rating, Morningglory (morningglory; [6]): 0
Plant response rating, Pigweed (pigweed [1]; [14]): 0
Plant response rating, Pigweed (pigweed [1]; [5]): 0
Pigweed plant response rating (pigweed [1]; 125 g ai/ha): 0
Plant response rating, Pigweed (pigweed [1]; [6]): 0
Plant response rating, Ducksalad (ducksalad; 250 g ai/ha): 90

O=C1NCC(c2ccc(F)c(Cl)c2)C1C(=O)Nc1ccccc1F (centres unmarked) [Compound 60]
Plant response rating, Barnyardgrass (barnyardgrass [2]; 250 g ai/ha): 30
Plant response rating, Pigweed (pigweed [3]; [8]): 20
Plant response rating, Pigweed (pigweed [3]; [9]): 20
Plant response rating, Pigweed (pigweed [3]; [12]): 10
Plant response rating, Pigweed (pigweed [3]; [13]): 20
Plant response rating, Morningglory (morningglory; [14]): 0
Plant response rating, Morningglory (morningglory; [5]): 0
Morningglory plant response rating (morningglory; 125 g ai/ha): 0
Plant response rating, Morningglory (morningglory; [6]): 0
Plant response rating, Pigweed (pigweed [1]; [14]): 0
Plant response rating, Pigweed (pigweed [1]; [5]): 0
Pigweed plant response rating (pigweed [1]; 125 g ai/ha): 0
Plant response rating, Pigweed (pigweed [1]; [6]): 0
Plant response rating, Ducksalad (ducksalad; 250 g ai/ha): 90

O=C1NCC(c2cccc(OC(F)(F)F)c2)C1C(=O)Nc1ccccc1F (centres unmarked) [Compound 69]
Plant response rating, Barnyardgrass (barnyardgrass [2]; 250 g ai/ha): 40
Pigweed plant response rating (pigweed [3]; [11]): 15
Plant response rating, Pigweed (pigweed [3]; [12]): 25
Plant response rating, Pigweed (pigweed [3]; [13]): 25
Plant response rating (scale of 0 to 100), Pigweed (pigweed [3]; Preemergence, 250 g ai/ha): 25
Plant response rating, Morningglory (morningglory; [14]): 0
Plant response rating, Morningglory (morningglory; [5]): 0
Morningglory plant response rating (morningglory; 125 g ai/ha): 0
Plant response rating, Morningglory (morningglory; [6]): 0
Plant response rating, Pigweed (pigweed [1]; [14]): 20
Plant response rating, Pigweed (pigweed [1]; [5]): 30
Pigweed plant response rating (pigweed [1]; 125 g ai/ha): 0
Plant response rating, Pigweed (pigweed [1]; [6]): 20
Plant response rating, Ducksalad (ducksalad; 250 g ai/ha): 85
